Literature values as cited in patent publication US20230263777A1, “STABLE SOLID FORMULATION OF AZILSARTAN OR PHARMACEUTICALLY ACCEPTABLE SALTS THEREOF” (PIRAMAL PHARMA LIMITED, priority 2020, published 2023).

SMILES: CCOc1nc2cccc(C(=O)OCc3oc(=O)oc3C)c2n1Cc1ccc(-c2ccccc2-c2noc(=O)[nH]2)cc1 [Azilsartan kamedoxomil, (5-methyl-2-oxo-2H-1,3-dioxol-4-yl)methyl 2-ethoxy-1-({4-[2-(5-oxo-4,5-dihydro-1,2,4-oxadiazol-3-yl)phenyl]phenyl}methyl)-1H-1,3-benzodiazole-7-carboxylate]
- Solubility in methanol (methanol): freely soluble
- Solubility in water (water): practically insoluble
